Experimental data reported in US20190192699A1, “NUCLEAR IMAGING AND RADIOTHERAPEUTICS AGENTS TARGETING CARBONIC ANHYDRASE IX AND USES THEREOF” (THE JOHNS HOPKINS UNIVERSITY, priority 2016, published 2019).
Values joined by “and” are separate entries in the source; they are usually repeats but may differ in a detail not shown here. Equal entries are not always repeated. “Also recorded” adds a separate entry of the source.

Tests used:
SK-RC-52 xenografts = experiment: Biodistribution of [64Cu]XYIMSR-06; assay type: in vivo, mice
Protocol: (§1) Cell Lines and Mouse Models. Animal experiments were performed in accordance with protocols approved by the Johns Hopkins Animal Care and Use Committee (ACUC). Six-week-old female NOD/SCID mice were purchased from the Animal Resource Core of the Sidney Kimmel Comprehensive Cancer Center of Johns Hopkins and were subcutaneously injected in the lower left flank or upper right flank with 1×10^6 SK-RC-52 cells in RPMI 1640 GlutaMAX™ media (Life Technologies, Frederick, Md.) supplemented with 1% fetal bovine serum (FBS). Mice were monitored for tumor size and used for SPECT/CT imaging when the size of the tumor reached 100 mm^3.
Biodistribution of [^64Cu]XYIMSR-06. Mice bearing SK-RC-52 xenografts within the upper right flank were injected intravenously with 740 kBq (20 μCi) of [^64Cu]XYIMSR-06 in 200 μL of PBS. For in vivo competition (binding specificity) studies, tumor-bearing mice were injected with 740 kBq (20 μCi) of [^64Cu]XYIMSR-06 and 200 nmole of 1 in 200 μL of PBS concurrently. At specific times after injection (1 h, 4 h, 8 h and 24 h), mice (n=5) were sacrificed by cervical dislocation with blood immediately collected by cardiac puncture. Heart, lungs, pancreas, spleen, fat, brain, muscle, small intestines, liver, stomach, kidney, urinary bladder, and tumor were also collected. Each organ was weighed and the tissue radioactivity was measured with an automated gamma counter (1282 Compugamma CS, Pharmacia/LKBNuclear, Inc., Mt. Waverly, Vic. Australia). The percentage of injected dose per gram of tissue (% ID/g) was calculated by comparison with samples of a standard dilution of the initial dose. All measurements were corrected for radioactive decay. Data were expressed as mean±standard deviation (SD). Prism software (GraphPAD, San Diego, Calif.) was used to determine statistical significance. Statistical significance was calculated using a paired t test. P-values […] were considered significant.

[1] = system: CAIX-expressing SK-RC-52 tumors; experiment: PET/CT imaging of [64Cu]XYIMSR-06; assay type: in vivo, mice; conditions: 22.2 MBq (600 μCi) via tail vein
Protocol: as §1
PET/CT imaging of [^64Cu]XYIMSR-06. Mice harboring subcutaneous SK-RC-52 tumors within the upper right flank were injected intravenously (tail vein) with 22.2 MBq (600 μCi) of [^64Cu]XYIMSR-06 in 250 μL of PBS (pH=7.0). Anesthesia was then induced with 3% isoflurane and maintained with 2% isoflurane. Physiologic temperature was maintained with an external light source while the mouse was on the gantry. Whole body, 2-bed PET/CT imaging was performed using the SuperArgus small animal PET/CT scanner (Sedecal, Madrid, Spain), […] a 250-700 keV energy window. PET acquisition times were: 5 min/bed position (1 h post-injection of [^64Cu]XYIMSR-06); 10 min/bed position (4 and 8 h) and 20 min/bed position (24 h). […]

[2] = 24 h + block (200 nmole of 1 co-injected)

CC(CCC(=O)N[C@@H](CC(=O)N[C@@H](CC(=O)N[C@@H](CCCCn1cc(CCCC(=O)Nc2nnc(S(N)(=O)=O)s2)nn1)C(=O)NCCOCCOCCNC(=S)Nc1ccc(CC2CN(CC(=O)[O-])CCN(CC(=O)[O-])CCN2CC(=O)O)cc1)C(=O)O)C(=O)O)(c1ccc(O)cc1)c1ccc(O)cc1.[64Cu+2] (some centres unmarked) [[^64Cu]XYIMSR-06]
Biodistribution: Fat (SK-RC-52 xenografts; 8 h post-injection): 0.28 ± 0.27 % ID/g | Biodistribution: Heart (SK-RC-52 xenografts; 8 h post-injection): 0.65 ± 0.10 % ID/g | Biodistribution: Kidney (kid) (SK-RC-52 xenografts; 8 h post-injection): 8.14 ± 1.15 % ID/g | Biodistribution: Liver (SK-RC-52 xenografts; 8 h post-injection): 0.99 ± 0.22 % ID/g | Biodistribution: Lung (SK-RC-52 xenografts; 8 h post-injection): 4.64 ± 0.58 % ID/g | Biodistribution: Muscle (mm) (SK-RC-52 xenografts; 8 h post-injection): 0.21 ± 0.05 % ID/g | Biodistribution: Pancreas (SK-RC-52 xenografts; 8 h post-injection): 0.47 ± 0.21 % ID/g | Biodistribution: Sm. intestine (SK-RC-52 xenografts; 8 h post-injection): 1.98 ± 0.14 % ID/g | Biodistribution: Spleen (SK-RC-52 xenografts; 8 h post-injection): 0.18 ± 0.02 % ID/g | Biodistribution: Stomach (SK-RC-52 xenografts; 8 h post-injection): 4.02 ± 0.53 % ID/g | Biodistribution: Tumor (SK-RC-52 xenografts; 8 h post-injection): 16.74 ± 1.58 % ID/g | Tumor/Blood ratio (SK-RC-52 xenografts; 8 h post-injection): 129.6±18.8 | Tumor/kid (kidney) ratio (SK-RC-52 xenografts; 8 h post-injection): 2.1±0.26 | Tumor/mm (muscle) ratio (SK-RC-52 xenografts; 8 h post-injection): 84.3±21.0 | all other tumor-to-organ ratios tested (SK-RC-52 xenografts; 24 h): ≥ 10.0 | tumor-to-lung ratio (SK-RC-52 xenografts; 24 h): 4.9 | Biodistribution: Bladder (SK-RC-52 xenografts; [2]): 0.45 ± 0.50 % ID/g | Biodistribution: Blood (SK-RC-52 xenografts; [2]): 0.01 ± 0.08 % ID/g | Biodistribution: Brain (SK-RC-52 xenografts; [2]): 0.02 ± 0.01 % ID/g | Biodistribution: Fat (SK-RC-52 xenografts; [2]): 0.01 ± 0.01 % ID/g | Biodistribution: Heart (SK-RC-52 xenografts; [2]): 0.08 ± 0.01 % ID/g | Biodistribution: Kidney (kid) (SK-RC-52 xenografts; [2]): 0.48 ± 0.09 % ID/g | Biodistribution: Liver (SK-RC-52 xenografts; [2]): 0.42 ± 0.04 % ID/g | Biodistribution: Lung (SK-RC-52 xenografts; [2]): 0.29 ± 0.05 % ID/g | Biodistribution: Muscle (mm) (SK-RC-52 xenografts; [2]): 0.04 ± 0.06 % ID/g | Biodistribution: Pancreas (SK-RC-52 xenografts; [2]): 0.07 ± 0.02 % ID/g | Biodistribution: Sm. intestine (SK-RC-52 xenografts; [2]): 0.19 ± 0.05 % ID/g | Biodistribution: Spleen (SK-RC-52 xenografts; [2]): 0.11 ± 0.04 % ID/g | Biodistribution: Stomach (SK-RC-52 xenografts; [2]): 0.29 ± 0.04 % ID/g | Biodistribution: Tumor (SK-RC-52 xenografts; [2]): 1.20 ± 0.47 % ID/g | Tumor/Blood ratio (SK-RC-52 xenografts; [2]): 27.1 ± 26.7 | Tumor/kid (kidney) ratio (SK-RC-52 xenografts; [2]): 2.4 ± 0.4 | Tumor/mm (muscle) ratio (SK-RC-52 xenografts; [2]): 49.0 ± 28.7 | Biodistribution: Bladder (SK-RC-52 xenografts; 24 h post-injection): 0.34 ± 0.09 % ID/g | Biodistribution: Blood (SK-RC-52 xenografts; 24 h post-injection): 0.00 ± 0.06 % ID/g | Biodistribution: Brain (SK-RC-52 xenografts; 24 h post-injection): 0.13 ± 0.02 % ID/g | Biodistribution: Fat (SK-RC-52 xenografts; 24 h post-injection): 0.03 ± 0.01 % ID/g | Biodistribution: Heart (SK-RC-52 xenografts; 24 h post-injection): 0.12 ± 0.03 % ID/g | Biodistribution: Kidney (kid) (SK-RC-52 xenografts; 24 h post-injection): 0.90 ± 0.12 % ID/g | Biodistribution: Liver (SK-RC-52 xenografts; 24 h post-injection): 0.38 ± 0.03 % ID/g | Biodistribution: Lung (SK-RC-52 xenografts; 24 h post-injection): 1.27 ± 0.38 % ID/g | Biodistribution: Muscle (mm) (SK-RC-52 xenografts; 24 h post-injection): 0.02 ± 0.01 % ID/g | Biodistribution: Pancreas (SK-RC-52 xenografts; 24 h post-injection): 0.21 ± 0.29 % ID/g | Biodistribution: Sm. intestine (SK-RC-52 xenografts; 24 h post-injection): 0.47 ± 0.03 % ID/g | Biodistribution: Spleen (SK-RC-52 xenografts; 24 h post-injection): 0.09 ± 0.01 % ID/g | Biodistribution: Stomach (SK-RC-52 xenografts; 24 h post-injection): 0.65 ± 0.04 % ID/g | Biodistribution: Tumor (SK-RC-52 xenografts; 24 h post-injection): 6.2 % ID/g and 6.23 ± 1.41 % ID/g | Tumor/Blood ratio (SK-RC-52 xenografts; 24 h post-injection): 142.6 ± 115.8 | Tumor/kid (kidney) ratio (SK-RC-52 xenografts; 24 h post-injection): 7.1 and 7.1 ± 2.5 | Tumor/mm (muscle) ratio (SK-RC-52 xenografts; 24 h post-injection): 261.3 ± 47.3 | tumor uptake on co-injection of 200 nmole of 1 (SK-RC-52 xenografts; co-injection of 200 nmole of 1): blocked tumor uptake | radiotracer uptake within liver (in vivo stability of NOTA-64Cu chelation) (SK-RC-52 xenografts; within 24 h): no significant radiotracer uptake within liver | PET/CT tumor imaging finding [1]: radiotracer uptake in tumor as early as 1 h post-injection; also recorded: At 1 h, tumor could be observed distinctly
